{
  "source": "ChEMBL document CHEMBL4393736",
  "about": "“Evaluation of α-hydroxycinnamic acids as pyruvate carboxylase inhibitors” (Bioorg Med Chem, 2019)",
  "key": {"Staphylococcus aureus [1]": {"test_system": "Staphylococcus aureus", "assay": "Non-competitive inhibition of Staphylococcus aureus pyruvate carboxylase expressed in Escherichia coli BL21(DE3) treated with ATP as substrate prior to HCO3-, ATP and NADH addition by Michelis-Menten based double-reciprocal plot analysis"}, "Staphylococcus aureus [2]": {"test_system": "Staphylococcus aureus", "assay": "(§1) Competitive inhibition of Staphylococcus aureus pyruvate carboxylase expressed in Escherichia coli BL21(DE3) treated with pyruvate as substrate prior to HCO3-, ATP and NADH addition by Michelis-Menten based double-reciprocal plot analysis"}, "[3]": {"assay": "Inhibition of full length Staphylococcus aureus pyruvate carboxylase expressed in Escherichia coli BL21(DE3) assessed as formation of oxaloacetic acid using pyruvate, HCO3-, ATP and NADH as substrate by malate dehydrogenase coupled enzyme assay"}, "[4]": {"target": "L-lactate dehydrogenase (Homo sapiens) (UniProt V9HWB9)", "assay": "Substrate activity at lactate dehydrogenase (unknown origin) at 2 mM in presence of NADH"}, "Homo sapiens [5]": {"species_on_record": "Homo sapiens", "assay": "Inhibition of MDH (unknown origin) at 1 mM using oxaloacetate as substrate by spectrophotometric analysis"}, "[6]": {"assay": "Inhibition of Staphylococcus aureus pyruvate carboxylase expressed in Escherichia coli BL21(DE3) assessed as FVB-OAA adduct formation using pyruvate as substrate by Fast violet B assay"}, "Homo sapiens [7]": {"species_on_record": "Homo sapiens", "assay": "Inhibition of MDH (unknown origin) at 200 uM using oxaloacetate as substrate by spectrophotometric analysis"}, "[8]": {"target": "72 kDa type IV collagenase (Homo sapiens) (UniProt P08253)", "sequence (P08253 110-660 limits assumed)": "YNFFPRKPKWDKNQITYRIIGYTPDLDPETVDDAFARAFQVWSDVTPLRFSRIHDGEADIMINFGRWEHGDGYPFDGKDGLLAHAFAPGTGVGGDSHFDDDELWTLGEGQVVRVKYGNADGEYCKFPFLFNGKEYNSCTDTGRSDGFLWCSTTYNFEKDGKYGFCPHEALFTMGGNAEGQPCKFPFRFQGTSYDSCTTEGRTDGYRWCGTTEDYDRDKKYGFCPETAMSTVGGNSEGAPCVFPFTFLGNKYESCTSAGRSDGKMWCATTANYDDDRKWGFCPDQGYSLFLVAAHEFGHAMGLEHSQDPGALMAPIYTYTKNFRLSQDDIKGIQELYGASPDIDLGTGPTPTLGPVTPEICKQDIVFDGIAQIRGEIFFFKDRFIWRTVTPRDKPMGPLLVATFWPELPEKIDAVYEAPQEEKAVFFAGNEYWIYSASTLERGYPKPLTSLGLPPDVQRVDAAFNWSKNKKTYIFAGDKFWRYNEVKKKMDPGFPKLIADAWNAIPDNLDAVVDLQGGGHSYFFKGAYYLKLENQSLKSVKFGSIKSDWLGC", "assay": "Inhibition of human matrix metalloprotease 2 at 50 uM treated with enzyme for 30 mins prior to substrate addition using omniMMP fluorogenic substrate measured for 30 mins by fluorescence based assay"}, "[9]": {"target": "Carbonic anhydrase 2 (Homo sapiens) (UniProt P00918)", "assay": "Inhibition of human carbonic anhydrase 2 at 200 uM treated with enzyme for 10 mins prior to substrate addition using p-nitrophenyl acetate as substrate measured for 20 mins"}, "[10]": {"assay": "Mixed-type of inhibition of Staphylococcus aureus pyruvate carboxylase expressed in Escherichia coli BL21(DE3) treated with ATP as substrate prior to HCO3-, ATP and NADH addition by Michelis-Menten based double-reciprocal plot analysis"}, "[11]": {"assay": "as §1"}, "[12]": {"target": "L-lactate dehydrogenase (Homo sapiens) (UniProt V9HWB9)", "assay": "Inhibition of lactate dehydrogenase (unknown origin) at 2 mM using pyruvate as substrate in presence of NADH"}, "[13]": {"target": "Carbonic anhydrase 2 (Homo sapiens) (UniProt P00918)", "assay": "Increase in human carbonic anhydrase 2 activity at 200 uM treated with enzyme for 10 mins prior to substrate addition using p-nitrophenyl acetate as substrate measured for 20 mins"}},
  "note": "pIC50, pKi: −log10 of the molar value. Active and inactive are the calls of the source. The rule behind the calls is not given here.",
  "data": [
    {"smiles": "O=C(O)C(=O)O", "values": [
      {"measurement": "inhibition", "setting": "Staphylococcus aureus [1]", "value": "Active"},
      {"measurement": "inhibition", "setting": "Staphylococcus aureus [2]", "value": "Active"}
    ]},
    {"smiles": "O=C(O)/C(O)=C/c1ccc(O)cc1", "values": [
      {"measurement": "pIC50", "setting": "[3]", "value": 4.66},
      {"measurement": "Activity", "setting": "[4]", "value": "Active"},
      {"measurement": "inhibition", "setting": "Homo sapiens [5]", "value": 9, "unit": "%"},
      {"measurement": "pIC50", "setting": "[6]", "value": 4.17}
    ]},
    {"smiles": "O=C(O)/C(O)=C/c1ccc(Cl)cc1", "values": [
      {"measurement": "pIC50", "setting": "[3]", "value": 3.66},
      {"measurement": "inhibition", "setting": "Homo sapiens [7]", "value": 2, "unit": "%"},
      {"measurement": "inhibition", "setting": "Homo sapiens [5]", "value": 12, "unit": "%"},
      {"measurement": "pIC50", "setting": "[6]", "value": 3.55}
    ]},
    {"smiles": "O=C(O)/C(O)=C/c1ccc(-c2ccsc2)cc1", "values": [
      {"measurement": "pIC50", "setting": "[6]", "value": 4.32},
      {"measurement": "inhibition", "setting": "[8]", "value": "Active"}
    ]},
    {"smiles": "O=C(O)/C(O)=C/c1ccc([N+](=O)[O-])cc1", "values": [
      {"measurement": "pIC50", "setting": "[3]", "value": "< 3.00"},
      {"measurement": "pIC50", "setting": "[6]", "value": "< 3.00"}
    ]},
    {"smiles": "Cc1cccc(/C=C(\\O)C(=O)O)c1", "values": [
      {"measurement": "pIC50", "setting": "[3]", "value": 4.64},
      {"measurement": "inhibition", "setting": "Homo sapiens [7]", "value": 13, "unit": "%"},
      {"measurement": "inhibition", "setting": "Homo sapiens [5]", "value": 74, "unit": "%"},
      {"measurement": "pIC50", "setting": "[6]", "value": 3.44}
    ]},
    {"smiles": "COc1ccc(/C=C(\\O)C(=O)O)cc1", "values": [
      {"measurement": "pIC50", "setting": "[3]", "value": 4.25},
      {"measurement": "pIC50", "setting": "[6]", "value": 3.77}
    ]},
    {"smiles": "O=C(O)C(=O)Cc1ccccc1Br", "values": [
      {"measurement": "pIC50", "setting": "[3]", "value": "< 3.00"},
      {"measurement": "pIC50", "setting": "[6]", "value": "< 3.00"}
    ]},
    {"smiles": "O=C(O)C(=O)CC1CCCCC1", "values": [
      {"measurement": "pIC50", "setting": "[6]", "value": "< 3.00"}
    ]},
    {"smiles": "C=CCCC(=O)C(=O)O", "values": [
      {"measurement": "pIC50", "setting": "[6]", "value": "< 2.70"}
    ]},
    {"smiles": "O=C(O)/C(O)=C/c1ccc(C(F)(F)F)cc1", "values": [
      {"measurement": "pIC50", "setting": "[3]", "value": 4.02},
      {"measurement": "pIC50", "setting": "[6]", "value": 3.89}
    ]},
    {"smiles": "O=C(O)/C(O)=C/c1ccc2ccccc2n1", "values": [
      {"measurement": "inhibition", "setting": "[9]", "value": "inactive"},
      {"measurement": "pIC50", "setting": "[3]", "value": 5.49},
      {"measurement": "Activity", "setting": "[4]", "value": "inactive"},
      {"measurement": "pKi", "setting": "[10]", "value": "5.15 to 5.28"},
      {"measurement": "inhibition", "setting": "Homo sapiens [5]", "value": 4, "unit": "%"},
      {"measurement": "pKi", "setting": "[11]", "value": 6.13},
      {"measurement": "pIC50", "setting": "[6]", "value": 5.37},
      {"measurement": "inhibition", "setting": "[8]", "value": "inactive"},
      {"measurement": "inhibition", "setting": "[12]", "value": "inactive"}
    ]},
    {"smiles": "O=C(O)C(O)Cc1ccccc1", "note": "(centres undefined)", "values": [
      {"measurement": "pIC50", "setting": "[6]", "value": "< 2.52"}
    ]},
    {"smiles": "O=C(O)C(=O)Cc1ccccc1[N+](=O)[O-]", "values": [
      {"measurement": "pIC50", "setting": "[3]", "value": "< 2.70"},
      {"measurement": "pIC50", "setting": "[6]", "value": "< 2.70"}
    ]},
    {"smiles": "Cc1ccc(/C=C(\\O)C(=O)O)cc1", "values": [
      {"measurement": "inhibition", "setting": "Staphylococcus aureus [1]", "value": "Active"},
      {"measurement": "pIC50", "setting": "[3]", "value": 3.85},
      {"measurement": "inhibition", "setting": "Homo sapiens [7]", "value": -3, "unit": "%"},
      {"measurement": "inhibition", "setting": "Homo sapiens [5]", "value": 10, "unit": "%"},
      {"measurement": "inhibition", "setting": "Staphylococcus aureus [2]", "value": "Active"},
      {"measurement": "pIC50", "setting": "[6]", "value": 3.68}
    ]},
    {"smiles": "O=C(O)C(=O)c1ccccc1", "note": "[BENZOYL FORMIC ACID]", "values": [
      {"measurement": "pIC50", "setting": "[6]", "value": "< 2.52"}
    ]},
    {"smiles": "O=C(O)/C=C/c1ccc(/C=C(\\O)C(=O)O)cc1", "values": [
      {"measurement": "Activity", "setting": "[13]", "value": "Active"},
      {"measurement": "pIC50", "setting": "[6]", "value": 4.23},
      {"measurement": "inhibition", "setting": "[8]", "value": "Active"}
    ]},
    {"smiles": "O=C(O)/C(O)=C/c1ccc(Br)cc1", "values": [
      {"measurement": "pIC50", "setting": "[3]", "value": 4.09},
      {"measurement": "inhibition", "setting": "Homo sapiens [7]", "value": 0, "unit": "%"},
      {"measurement": "inhibition", "setting": "Homo sapiens [5]", "value": 9, "unit": "%"},
      {"measurement": "pIC50", "setting": "[6]", "value": 3.70}
    ]},
    {"smiles": "O=C(O)C(=O)CCc1ccccc1", "values": [
      {"measurement": "pIC50", "setting": "[6]", "value": "< 2.70"}
    ]},
    {"smiles": "Cc1ccc(/C=C(\\O)C(=O)O)cc1C", "values": [
      {"measurement": "pIC50", "setting": "[3]", "value": 4.42},
      {"measurement": "inhibition", "setting": "Homo sapiens [7]", "value": 3, "unit": "%"},
      {"measurement": "pIC50", "setting": "[6]", "value": 4.01}
    ]},
    {"smiles": "O=C(O)/C(O)=C/c1ccccc1", "values": [
      {"measurement": "pIC50", "setting": "[3]", "value": 3.89},
      {"measurement": "inhibition", "setting": "Homo sapiens [7]", "value": 0, "unit": "%"},
      {"measurement": "inhibition", "setting": "Homo sapiens [5]", "value": 78, "unit": "%"},
      {"measurement": "pIC50", "setting": "[6]", "value": 3.62}
    ]},
    {"smiles": "O=C(O)/C=C/c1cccc(/C=C(\\O)C(=O)O)c1", "values": [
      {"measurement": "pIC50", "setting": "[6]", "value": 3.93}
    ]},
    {"smiles": "O=C(O)/C(O)=C/c1ccc(/C=C(\\O)C(=O)O)cc1", "values": [
      {"measurement": "pIC50", "setting": "[3]", "value": 4.96},
      {"measurement": "Activity", "setting": "[13]", "value": "Active"},
      {"measurement": "pIC50", "setting": "[6]", "value": 5.52},
      {"measurement": "inhibition", "setting": "[8]", "value": "Active"}
    ]},
    {"smiles": "O=C(O)/C(O)=C/c1ccc(F)cc1", "values": [
      {"measurement": "pIC50", "setting": "[3]", "value": 4.52},
      {"measurement": "inhibition", "setting": "Homo sapiens [7]", "value": 23, "unit": "%"},
      {"measurement": "inhibition", "setting": "Homo sapiens [5]", "value": 78, "unit": "%"},
      {"measurement": "pIC50", "setting": "[6]", "value": 4.00}
    ]}
  ]
}
